Entries after “also recorded” stand apart in the source; their conditions may differ. Read-outs that look alike come from different tables or passages of the source.
What was measured:
Assay type in all cases: in vivo, human
[1] = Plasma pharmacokinetics in the food-effect cohort; conditions: single 10 mg; for CL/F / Vd/F / half-life: arithmetic mean ± SD; for Vd/F: read-out: Vz/F; for half-life: read-out: t½ (converted); for AUC(0-inf) / Cmax / AUC: geometric mean (geometric CV%); for AUC: read-out: AUC24
Text: Participants were randomized in a 1:1 ratio to 1 of 2 sequences: fasted/fed or fed/fasted. […] For all study groups, blood samples for PK assessment were obtained predose, up to 12 times daily on day 1, and then at regular intervals throughout the study (see Supplemental Appendix for details). Standard noncompartmental methods were used to calculate PK parameters using Phoenix WinNonlin, version 7.0; actual sample collection times were used.

healthy adults [2] = test: Echocardiography (core laboratory) pharmacodynamics, MAD cohorts
Method: The MAD cohorts also used a randomized, double-blind, placebo-controlled, sequential design.
For PD assessments of LVEF, echocardiograms for the SAD and MAD cohorts were interpreted by the echocardiography core laboratory and used for all data analysis and dose-level review decisions, and immediate local interpretation of the echocardiograms was performed for safety monitoring. […] Echocardiograms on day 3 (48 hours after dosing) were obtained only if the 24-hour LVEF had not returned to near or above baseline, as determined by the investigator. In the MAD cohorts, echocardiograms were obtained on day -1; predose on day 1; at 1.5 hours postdose on days 2, 4, and 9; and at 1.5, 24, and 72 hours postdose on day 14 (for the 5-mg and 10-mg cohorts) or on day 17 (for the 7.5-mg cohort). Echocardiograms were obtained 3 days after the last dose (on day 17 or 20) only if the participant’s prior LVEF was not near or above baseline, as determined by the investigator.
Using echocardiography instrumentation certified for clinical use, echocardiographic images were obtained from standard views based on American Society of Echocardiography recommendations for chamber quantification.[19] To obtain the LVEF, the endocardial borders of 3 different cardiac cycles were traced at both end diastole and end systole from the apical 4- and 2-chamber views and LV end-diastolic volume (LVEDV) and LV end-systolic volume (LVESV), calculated using the Simpson’s method of discs algorithm. Ejection fraction was calculated in the standard manner: LVEF = (LVEDV − LVESV)/LVEDV. The intraobserver variability (coefficient of variation) for LVEF was 8%.
All participants who received ≥1 dose of the study drug and had ≥1 predose and ≥1 postdose echocardiographic measurements were included in the PD analysis set. […] Descriptive statistics of the echocardiographic parameters were generated using SAS, version 9.3 or higher. Dose-response analysis was performed using analysis of covariance to identify the least-squares mean difference (aficamten minus placebo), as described in the Supplemental Appendix. Analyses of concentration “bin” and exposure-response were also performed using analysis of covariance, as described in the Supplemental Appendix. SAS PROC MIXED was used for all comparative analyses.
Statistical A nalysis of P harmacodynamic (PD) P aram eters
To analyze the impact of drug dose on echocardiographic parameters in the SAD and MAD
cohorts, an inferential analysis was conducted on t he PD analysis set using linear mixed models
for rep eated -measur es an alysis of covarian ce ( AN COVA). The A NCOVA used baseline valu e as
a covariate, included treatment, time-point, and time-point-by- treatment interaction as fixed
effects, and ch ange f rom baseline as the d ependent variable. Th e unstructur ed varian ce-
covarian ce structu re w as used, and the model acco unted for the time- point r epeated m easur es.
The ANCOVA analysis was conducted separately for each study part and f or each PD p aram eter .
The least-squares means, the difference in least squares means (active minus placebo), and the
associated 2-sided 95% CIs were presented for each comparison.
Concentration bin analysis
An additional inferential analysis was performed i n the SAD and MAD cohorts , to evaluate the
analysis set. A concentrat ion bin ANCOVA was conducted using linear mi xed models for
repeat ed-measures an aly ses with concentr ation bin group as a fix ed ef fect, baseline PD
parameters as a covari ate, change f rom baseline as the dependent v ariable, and a random
intercept to adjust for the repeat ed measures. The unstructured variance-co variance structur e was
used.Plasma concentr ations of aficamten wer e paired with coincident PD parameters. The
ANCOVA compared the change in PD parameters between each bin versus the pooled placebo
group. The least-squ ares means, the differen ce in l east squares m eans (bin group minus placebo), […]

healthy adults [3] = test: Overall safety and tolerability (AEs, ECG, vital signs, laboratory tests), all cohorts
Method: Safety was assessed by the incidence of adverse events (AEs) and by the incidence of reduced LVEF. Treatment-emergent AEs (TEAEs) were defined as AEs that began or increased after study drug administration. All AEs were coded using the Medical Dictionary for Regulatory Activities, version 21.1, and graded using the National Cancer Institute Common Terminology Criteria for AEs (version 4.03) 5-point severity scale.[18] Each AE was judged as either related or unrelated to the study drug by the treating investigator. Clinical laboratory tests were obtained at regular intervals in all cohorts.
For safety monitoring, participants in all cohorts had periodic echocardiograms, which were assessed by a cardiologist. In the SAD and MAD cohorts, echocardiograms were also reviewed by an echocardiography core laboratory for PD assessments, as described in the section on echocardiographic methods. In addition, participants in all cohorts were monitored with continuous 12-lead ECG recording using Holter monitors. For safety monitoring, a single 12-lead ECG was extracted at screening, predose, and periodically throughout follow-up and interpreted by the investigator. In the SAD, MAD, and CYP2D6-PM cohorts, cardiodynamic ECGs (triplicate 10-second, 12-lead ECG recordings) were obtained before the corresponding PK blood sample (see the Supplemental Appendix for full details on blood sampling), and ECG intervals were quantitated by qualified readers.

[4] = human, plasma, oral, 10 mg, Fasted, n = 4
[5] = human, plasma, oral, 10 mg, Fasted, n = 10
[6] = human, plasma, oral, 10 mg, Fed, n = 7

## CCc1nc(-c2ccc3c(c2)CC[C@H]3NC(=O)c2cnn(C)c2)no1 [Aficamten]
[1]; Fasted, n = 4
  CL/F: 2.8 ± 0.6 L/h
[1]; Fed, n = 7
  CL/F: 3.1 ± 0.9 L/h
[1]; [4]
  Vd/F: 346 ± 134 L
  half-life: 84.4 ± 16.4 h
  AUC(0-inf): 3670 ng·h/mL
[1]; [5]
  Cmax: 50.6 ng/mL
  AUC: 601 ng·h/mL
[1]; human, plasma, oral, 10 mg, Fasted, median (range), n = 10
  Tmax: 2.3 h
[1]; human, plasma, oral, 10 mg, Fed (high-fat breakfast), n = 12
  Cmax: 65 ng/mL
[1]; [6]
  Vd/F: 340 ± 100 L
  half-life: 78 ± 8.1 h
  AUC(0-inf): 3410 ng·h/mL
[1]; human, plasma, oral, 10 mg, Fed, n = 12
  AUC: 631 ng·h/mL
[1]; fed vs fasted
  Effect of food on the PK: not affected; also recorded: no significant effect; also recorded: no effect of food
  Increase of Cmax when taken with food: approximately 30%
Healthy adults [2]; MAD 7.5 mg once daily, 1 of 6
  Participants with absolute reduction in LVEF of ≥5% from baseline: 17%
Healthy adults [2]; MAD 10 mg once daily
  Participants with absolute reduction in LVEF of ≥10% from baseline: 33%
  Participants with reduction in LVEF ≥10%: 2 participants
Healthy adults [2]; MAD 10 mg once daily for 14 days
  Participants who met the stopping criteria based on echocardiography results: 2 participants
Healthy adults [2]; MAD 10 mg once daily for 14 days, […] postdose on day 14, P = 0.21
  Placebo-corrected reduction in LVEF (least-squares mean difference): 3.2%
Healthy adults [2]; MAD 10 mg once daily, 2 of 6
  Participants with absolute reduction in LVEF of ≥5% from baseline: 33%
Healthy adults [2]; MAD 10 mg, […] postdose on day 14
  Largest mean reduction in LVEF from baseline: 5.0%
Healthy adults [2]; MAD cohorts, plasma concentrations of ≤180 ng/mL
  Suppression of LVEF in most participants: minimal suppression of LVEF
Healthy adults [2]; MAD cohorts, bin concentration analysis or linear regression analysis
  Relationship of LVEF to plasma concentration: did not reach statistical significance
Healthy adults [2]; any of the MAD cohorts, per core laboratory assessment
  Reduction in LVEF to <50%: not observed
Healthy adults [3]; all cohorts
  Discontinuation of the study because of AEs: no participants discontinued
  Serious AEs: no serious AEs; also recorded: without serious AEs
  Vital signs at postdose timepoints: within normal limits
Healthy adults [3]; all cohorts, exception of 2 individuals with baseline QTcF ≥440 ms whose QTcF increased by 3 and 13 ms
  QTcF at baseline or any assessment during the dosing interval: ≤ 450 ms
Healthy adults [3]; all cohorts, only exception was 1 participant in the SAD placebo group
  Increase in QTcF interval: ≤ 30 ms
Healthy adults [3]; during the study
  Serum chemistry, hematology, or urinalysis findings: No clinically significant
Healthy adults [3]; following single or multiple doses
  Effect on the QT interval (cardiodynamic assessments): no evidence of an effect
Healthy adults [3]; single doses of ≤50 mg or daily dosing of ≤10 mg for 14 or 17 days
  Tolerability: safe and well tolerated
Healthy adults [3]; single-dose and multiple-dose administration
  Severity of observed TEAEs: generally mild (grade 1)
